The subject of experiment [1] is small airway epithelial cells (SAEC). Kind of experiment: Cell viability (MTT) assay, CSE-induced cell death. Type of experiment: cell-based, human. The note with it: 24 h, with fidarestat (10 μM in FIG. 1 legend, 20 μM in method). The method, then: FIG. 1. Inhibition of AR prevents cigarette smoke extract (CSE)-induced cell-death in small airway epithelial cells (SAEC). MTT assay was performed after incubating the cells for 24 h with different concentrations of CSE in absence and presence of 10 μM Fidarestat. Bars (Mean±SD; n=6) represent the absorbance at 570 nm corresponding to live cells. Primary human Small Airway Epithelial Cells (SAEC) obtained from Lonza (Walkersville, Md.) were normal human SAEC harvested from distal airspace of donor. The cells were cultured according to the supplier's instructions at 37° C. in humidified atmosphere containing 95% air and 5% CO2 in small airway epithelial basal medium (SABM) with supplements containing 52 μg/ml bovine pituitary extract, 0.5 ng/ml human recombinant epidermal growth factor (EGF), 0.5 μg/ml epinephrine, 1 μg/ml hydrocortisone, 10 μg/ml transferrin, 5 μg/ml insulin, 0.1 ng/ml retinoic acid (RA), 6.5 ng/ml triiodothyronine, 50 μg/ml Gentamicin/Amphotericin-B (GA-1000), and 50 μg/ml fatty acid-free bovine serum albumin (BSA). […] Absorbance was read at 570 nm using a 96-well ELISA plate reader.

Another experiment has as its system IL-13. Kind of experiment: RWE-induced expression of IL-13 in mouse lung (quantitative RT-PCR). Type of experiment: in vivo. The note with it: RWE-sensitized and challenged mice, fidarestat 7 mg/kg body wt/day in drinking water, lungs 16 h after challenge. On the procedure:
FIG. 8. AR inhibition prevents RWE-induced expression of IL-13 in mouse lung. The mice were sensitized and challenged with PBS or RWE, without or with AR inhibitor and 16 h later lungs were harvested and total RNA was isolated (n=4). One microgram of total RNA from each sample was transcribed into first-strand cDNA and quantitative RT-PCR was conducted using IL-13 specific forward and reverse primers. The levels of RNA for the target sequences were determined by melting curve analysis. The values presented here are fold-change over the control. (**p<0.001). RWE, ragweed pollen extract; ARI, aldose reductase inhibitor. […]
The mice lungs were harvested 16 h after RWE-challenge and total RNA was isolated. From each sample, one microgram of total RNA was transcribed into first-strand cDNA and quantitative RT-PCR was conducted using IL-13 specific forward and reverse primers 5′[…] […] Data were collected and analyzed by ABI 7000 System equipment and software (Applied Biosystems, Foster City, Calif.). […] Values of expression in fold increase (ratio of control) were calculated using the formula for relative expression by the method of Delta Delta CT (ΔΔCT): F=2^−^ΔΔ^C, F=fold change (ratio of control), −ΔΔCT=(CT Target−CTHKG)^Timex−(CT Target-CT HKG)^Time 0. […]

As to `NC(=O)[C@@H]1C[C@]2(NC(=O)NC2=O)c2cc(F)ccc2O1` [fidarestat, (2S,4S)-2-aminoformyl-6-fluoro-spiro[chroman-4,4′-imidazolidine]-2′,5′-dione], the “cells alive after CSE” value is on record as “more than 95%” in experiment [1] (12.5% CSE) and more than 85% in experiment [1] (50% CSE). In the experiment on IL-13, the “RWE-induced increase of IL-13 expression in lung” value is “prevented this increase”.

The values above are taken from patent US8785483B2, “Methods for treating COPD” (The Board of Regents of the University of Texas System, priority 2010, dated 2014).
